Source: patent US12145944B2, “Imidazopyrimidines as EED inhibitors and the use thereof” (THE REGENTS OF THE UNIVERSITY OF MICHIGAN, priority 2019, dated 2024)
Read-outs that look alike come from different tables or passages of the source.

What was measured:
[1] = system: KARPAS422 human B cell lymphoma cell; assay: Cell proliferation, KARPAS422, 7 day treatment (WST-8); assay type: cell-based; conditions: Homo sapiens, KARPAS-422, 168 h
Summary of the method: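 KARPAS422 cells seeded at 2 000-3 000 cells/well and exposed to serially diluted compounds for 7 days at 37 °C, 5% CO2. Growth measured by WST-8 (1-4 h, absorbance 450 nm). Readings normalized to DMSO-treated cells; IC50 from nonlinear regression.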

Pfeiffer cell line = assay: Anti-proliferative activity, Pfeiffer cell line, 7 day treatment; assay type: cell-based; conditions: Homo sapiens, 168 h
Procedure: “N/A” stands for “not assessed”.
To assess the effect of PRC2 inhibition on cell growth, cells were seeded in 96-well cell culture plates at a density of 2 000-3 000 cells/well in 200 µL of culture medium, and treated with serially diluted compounds for 7 days at 37° C. in an atmosphere of 5% CO2. Cell growth was evaluated by a […] WST-8 assay (Dojindo Molecular Technologies) using a Tecan Infinite M1000 multimode microplate reader (Tecan, Morrisville, NC). The WST-8 reagent was added to the plate, incubated for 1-4 h, and read at 450 nm. The readings were normalized to the DMSO-treated cells, and the IC50 was calculated by nonlinear regression analysis using GraphPad Prism 6 software

[2] = anti-proliferative IC50 class, Karpas 422 cell line, 7 day treatment, read-out: Karpas Cell line
[3] = anti-proliferative IC50 class, Pfeiffer cell line, 7 day treatment, read-out: Pfeiffer Cell line
[4] = anti-proliferative IC50, Karpas 422 cell line, 7 day treatment, read-out: Karpas Cell line
[5] = anti-proliferative IC50, Pfeiffer cell line, 7 day treatment, read-out: Pfeiffer Cell line

Row | Compound | IC50 [1, 4] | IC50 (Pfeiffer cell line; [5]) | further results
1 | Cc1cnc2n1Cc1ncccc1-c1cnc(NCc3c(F)ccc4c3CCO4)n3cnc-2c13 [E 17, N-((5-fluoro-2,3-dihydrobenzofuran-4-yl)methyl)-5-methyl-6H-2,3,5a,7,12,13a-hexaazabenzo[4,5]cyclopenta[7,8]cycloocta[1,2,3-cd]inden-13-amine] |  |  | IC50 [1, 2]: 10 to 100 nM; IC50 (Pfeiffer cell line; [3]): 10 to 100 nM
2 | O=C1NCc2nc(C(F)(F)F)ccc2-c2cnc(NCc3c(F)ccc4c3CCO4)n3cnc1c23 [compound 25, 12-(((5-fluoro-2,3-dihydrobenzofuran-4-yl)methyl)amino)-7-(trifluoromethyl)-4,5-dihydro-3H-2,4,6,11,12a-pentaazabenzo[4,5]cycloocta[1,2,3-cd]inden-3-one] | 16.5 nM | 0.29 nM | 
3 | Cc1ccc2c(n1)CCNC(=O)c1ncn3c(NCc4c(F)ccc5c4CCO5)ncc-2c13 [E 29, 13-(((5-fluoro-2,3-dihydrobenzofuran-4-yl)methyl)amino)-8-methyl-5,6-dihydro-2,4,7,12,13a-pentaazabenzo[4,5]cyclonona[1,2,3-cd]inden-3(4H)-one] |  |  | IC50 [1, 2]: 10 to 100 nM; IC50 (Pfeiffer cell line; [3]): 10 to 100 nM
4 | O=C1c2ncn3c(NCc4c(F)ccc5c4CCO5)ncc(c23)-c2ccc(C(F)(F)F)nc2CN1CC1COCCO1 (stereo not drawn) [compound 35, 4-((1,4-dioxan-2-yl)methyl)-12-(((5-fluoro-2,3-dihydrobenzofuran-4-yl)methyl)amino)-7-(trifluoromethyl)-4,5-dihydro-3H-2,4,6,11,12a-pentaazabenzo[4,5]cycloocta[1,2,3-cd]inden-3-one] | 1.23 nM | 0.12 nM | 
5 | O=C1c2ncn3c(NCc4c(F)ccc5c4CCO5)ncc(c23)-c2ccc(C(F)(F)F)nc2CN1C1CC1 [compound 41, 4-cyclopropyl-12-(((5-fluoro-2,3-dihydrobenzofuran-4-yl)methyl)amino)-7-(trifluoromethyl)-4,5-dihydro-3H-2,4,6,11,12a-pentaazabenzo[4,5]cycloocta[1,2,3-cd]inden-3-one] | 1.69 nM | 1.03 nM | 
6 | Cc1ccc2c(n1)CCS(=O)(=O)c1ncn3c(NCc4c(F)ccc5c4CCO5)ncc-2c13 [compound 97, 12-(((5-fluoro-2,3-dihydrobenzofuran-4-yl)methyl)amino)-7-methyl-4,5-dihydro-3-thia-2,6,11,12a-tetraazabenzo[4,5]cycloocta[1,2,3-cd]indene 3,3-dioxide] | 1.85 nM | 0.058 nM | 
7 | CC(C)(C)c1ccc2c(n1)CN(CC(F)(F)F)C(=O)c1ncn3c(NCc4c(F)ccc5c4CCO5)ncc-2c13 [E 50, 7-(tert-butyl)-12-(((5-fluoro-2,3-dihydrobenzofuran-4-yl)methyl)amino)-4-(2,2,2-trifluoroethyl)-4,5-dihydro-3H-2,4,6,11,12a-pentaazabenzo[4,5]cycloocta[1,2,3-cd]inden-3-one] |  |  | IC50 [1, 2]: < 10 nM; IC50 (Pfeiffer cell line; [3]): < 10 nM
8 | O=C1c2ncn3c(NCc4c(F)ccc5c4CCO5)ncc(c23)-c2cnc(C(F)(F)F)cc2CN1C1CC1 [Cpd. No. 36, 4-cyclopropyl-12-(((5-fluoro-2,3-dihydrobenzofuran-4-yl)methyl)amino)-7-(trifluoromethyl)-4,5-dihydro-3H-2,4,8,11,12a-pentaazabenzo[4,5]cycloocta[1,2,3-cd]inden-3-one] | 5.66 nM | 1.04 nM | 
9 | Cc1nc2c(s1)-c1cnc(NCc3c(F)ccc4c3CCO4)n3cnc(c13)C(=O)N(C1CC1)C2 [compound 86, 4-cyclopropyl-11-(((5-fluoro-2,3-dihydrobenzofuran-4-yl)methyl)amino)-7-methyl-4,5-dihydro-3H-8-thia-2,4,6,10,11a-pentaazacyclopenta[4,5]cycloocta[1,2,3-cd]inden-3-one] | 2.29 nM | 0.021 nM | 
10 | O=C1c2ncn3c(NCc4c(F)ccc5c4CCO5)ncc(c23)-c2ccc(C3CCC3)nc2CN1CC(F)(F)F [E 52, 7-cyclobutyl-12-(((5-fluoro-2,3-dihydrobenzofuran-4-yl)methyl)amino)-4-(2,2,2-trifluoroethyl)-4,5-dihydro-3H-2,4,6,11,12a-pentaazabenzo[4,5]cycloocta[1,2,3-cd]inden-3-one] |  |  | IC50 [1, 2]: < 10 nM; IC50 (Pfeiffer cell line; [3]): < 10 nM
11 | Cc1ccc2c(n1)CS(=O)(=O)c1ncn3c(NCc4c(F)ccc5c4CCO5)ncc-2c13 [Cpd. No. 95, 11-(((5-fluoro-2,3-dihydrobenzofuran-4-yl)methyl)amino)-6-methyl-4H-3-thia-2,5,10,11a-tetraazadibenzo[cd,f]azulene 3,3-dioxide] | 0.89 nM | 0.023 nM | 
12 | COc1cccc(F)c1CNc1ncc2c3c(ncn13)C(=O)OCc1cc(C(F)(F)F)ccc1-2 [compound 28, 12-((2-fluoro-6-methoxybenzyl)amino)-7-(trifluoromethyl)-3H,5H-4-oxa-2,11,12a-triazabenzo[4,5]cycloocta[1,2,3-cd]inden-3-one] | > 100 nM | > 100 nM | 
13 | O=C1OCc2cc(C(F)(F)F)ccc2-c2cnc(NCc3cccc4c3OCO4)n3cnc1c23 [compound 27, 12-((benzo[d][1,3]dioxol-4-ylmethyl)amino)-7-(trifluoromethyl)-3H,5H-4-oxa-2,11,12a-triazabenzo[4,5]cycloocta[1,2,3-cd]inden-3-one] | > 100 nM | > 100 nM | 
14 | CS(=O)(=O)c1ncn2c(NCc3c(F)ccc4c3CCO4)ncc(-c3ccccc3)c12 [Cpd. No. 99, N-((5-fluoro-2,3-dihydrobenzofuran-4-yl)methyl)-1-(methylsulfonyl)-8-phenylimidazo[1,5-c]pyrimidin-5-amine] |  |  | IC50 ([1]; read-out: Karpas Cell line (nM)): 0.88 nM; IC50 (Pfeiffer cell line; Pfeiffer, read-out: Pfeiffer Cell line (nM)): 0.19 nM
15 | O=C1NCc2cc(C(F)(F)F)ncc2-c2cnc(NCc3c(F)ccc4c3CCO4)n3cnc1c23 [compound 22, 12-(((5-fluoro-2,3-dihydrobenzofuran-4-yl)methyl)amino)-7-(trifluoromethyl)-4,5-dihydro-3H-2,4,8,11,12a-pentaazabenzo[4,5]cycloocta[1,2,3-cd]inden-3-one] | 45.6 nM | 4.88 nM | 
16 | CC(C)c1ccc2c(n1)CN(CC(F)(F)F)C(=O)c1ncn3c(NCc4c(F)ccc5c4CCO5)ncc-2c13 [E 15, 12-(((5-fluoro-2,3-dihydrobenzofuran-4-yl)methyl)amino)-7-isopropyl-4-(2,2,2-trifluoroethyl)-4,5-dihydro-3H-2,4,6,11,12a-pentaazabenzo[4,5]cycloocta[1,2,3-cd]inden-3-one] |  |  | IC50 [1, 2]: < 10 nM; IC50 (Pfeiffer cell line; [3]): < 10 nM
17 | O=C1c2ncn3c(NCc4c(F)ccc5c4CCO5)ncc(c23)-c2ccsc2CN1C1CC1 [compound 88, 4-cyclopropyl-11-(((5-fluoro-2,3-dihydrobenzofuran-4-yl)methyl)amino)-4,5-dihydro-3H-6-thia-2,4,10,11a-tetraazacyclopenta[4,5]cycloocta[1,2,3-cd]inden-3-one] | 25.7 nM | 0.035 nM | 
18 | O=C1OCc2ncccc2-c2cnc(NCc3c(F)ccc4c3CCO4)n3cnc1c23 [Cpd. No. 12, 12-(((5-fluoro-2,3-dihydrobenzofuran-4-yl)methyl)amino)-3H,5H-4-oxa-2,6,11,12a-tetraazabenzo[4,5]cycloocta[1,2,3-cd]inden-3-one] | 3.84 nM | 0.65 nM | 
19 | O=C1OCc2ccccc2-c2cnc(NCc3c(F)ccc4c3CCO4)n3cnc1c23 [compound 6, 12-(((5-fluoro-2,3-dihydrobenzofuran-4-yl)methyl)amino)-3H,5H-4-oxa-2,11,12a-triazabenzo[4,5]cycloocta[1,2,3-cd]inden-3-one] | 1.98 nM | 0.22 nM | 
20 | O=S1(=O)Cc2ncccc2-c2cnc(NCc3c(F)ccc4c3CCO4)n3cnc1c23 [compound 94, 11-(((5-fluoro-2,3-dihydrobenzofuran-4-yl)methyl)amino)-4H-3-thia-2,5,10,11a-tetraazadibenzo[cd,f]azulene 3,3-dioxide] | 13.9 nM | 0.2 nM | 
21 | O=C1OCc2ccc(C(F)(F)F)cc2-c2cnc(NCc3c(F)ccc4c3CCO4)n3cnc1c23 [compound 24, 12-(((5-fluoro-2,3-dihydrobenzofuran-4-yl)methyl)amino)-8-(trifluoromethyl)-3H,5H-4-oxa-2,11,12a-triazabenzo[4,5]cycloocta[1,2,3-cd]inden-3-one] | > 100 nM | 38.4 nM | 
22 | Cc1ccc2c(n1)Cn1ccnc1-c1ncn3c(NCc4c(F)ccc5c4CCO5)ncc-2c13 [E 34, N-((5-fluoro-2,3-dihydrobenzofuran-4-yl)methyl)-8-methyl-6H-2,3,5a,7,12,13a-hexaazabenzo[4,5]cyclopenta[7,8]cycloocta[1,2,3-cd]inden-13-amine] |  |  | IC50 [1, 2]: 10 to 100 nM; IC50 (Pfeiffer cell line; [3]): < 10 nM
23 | Cc1ccc2c(n1)CN(CC(F)(F)F)C(=O)c1ncn3c(NCc4c(F)ccc5c4CCCO5)ncc-2c13 [E 39, 12-(((6-fluorochroman-5-yl)methyl)amino)-7-methyl-4-(2,2,2-trifluoroethyl)-4,5-dihydro-3H-2,4,6,11,12a-pentaazabenzo[4,5]cycloocta[1,2,3-cd]inden-3-one] |  |  | IC50 [1, 2]: 10 to 100 nM; IC50 (Pfeiffer cell line; [3]): < 10 nM
24 | Cc1cccc(F)c1CNc1ncc2c3c(ncn13)COCc1ncccc1-2 [compound 1, N-(2-fluoro-6-methylbenzyl)-3H,5H-4-oxa-2,6,11,12a-tetraazabenzo[4,5]cycloocta[1,2,3-cd]inden-12-amine] | > 100 nM | > 100 nM | 
